Results from PubChem BioAssay AID330 (DTP/NCI, 2004).
Inconclusive results and toxic doses are left out. The calls were made as follows: active = survival T/C of 150% or more; inactive = T/C below 125% in these data.

Test system: P388 leukemia ip, CD2F1 mice, survival T/C
Test: NCI In Vivo Anticancer Drug Screen. Data for tumor model P388 Leukemia (intraperitoneal) in CD2F1 (CDF1) mice
Conditions: endpoint: median survival time, higher = longer survival
Outline: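 Mice carrying the transplanted tumor received test compound or vehicle. Survival was recorded in each group, and the value is the treated-group measurement divided by that of the vehicle-treated control group.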

[1] = dose: 50.0 mg/kg/injection, schedule: Q01DX009 (ip), vehicle: saline with Tween-80
[2] = dose: 100.0 mg/kg/injection, schedule: Q01DX009 (ip), vehicle: saline with Tween-80
[3] = dose: 200.0 mg/kg/injection, schedule: Q01DX009 (ip), vehicle: saline with Tween-80
[4] = dose: 60.0 mg/kg/injection, schedule: Q01DX005 (ip), vehicle: saline with Tween-80
[5] = dose: 120.0 mg/kg/injection, schedule: Q01DX005 (ip), vehicle: saline with Tween-80
[6] = dose: 240.0 mg/kg/injection, schedule: Q01DX005 (ip), vehicle: saline with Tween-80
[7] = dose: 100.0 mg/kg/injection, schedule: Q01DX009 (ip), vehicle: saline
[8] = dose: 200.0 mg/kg/injection, schedule: Q01DX009 (ip), vehicle: saline
[9] = dose: 25.0 mg/kg/injection, schedule: Q01DX009 (ip), vehicle: saline
[10] = dose: 50.0 mg/kg/injection, schedule: Q01DX009 (ip), vehicle: saline

Measured: T/C

CC(=O)NC(C(=O)O)C(C)SCc1ccccc1 (configuration not stated)
inactive: [1] 100 % of control | [2] 91 % of control | [3] 97 % of control

COc1ccc(CC2CCCNC2C(=O)O)cc1 (configuration not stated)
inactive: [1] 114 % of control | [2] 101 % of control | [3] 99 % of control

CC(=O)C(C(C)=O)=[Se](c1ccccc1)c1ccccc1
inactive: dose: 100.0 mg/kg/injection, schedule: Q04DX002 (ip), vehicle: saline 99 % of control | dose: 200.0 mg/kg/injection, schedule: Q04DX002 (ip), vehicle: saline 100 % of control | dose: 400.0 mg/kg/injection, schedule: Q04DX002 (ip), vehicle: saline 99 % of control

COc1cc(O)c(O)cc1C(C)(C)C
inactive: dose: 22.5 mg/kg/injection, schedule: Q01DX005 (ip), vehicle: saline with Tween-80 106 % of control | dose: 45.0 mg/kg/injection, schedule: Q01DX005 (ip), vehicle: saline with Tween-80 110 % of control | dose: 90.0 mg/kg/injection, schedule: Q01DX005 (ip), vehicle: saline with Tween-80 97 % of control

COc1ccc2c(c1O)-c1cccc3c1[C@@H](C2)N(CCOC(=O)NCCCl)CC3
inactive: dose: 9.38 mg/kg/injection, schedule: Q04DX003 (ip), vehicle: distilled water + Tween-80 101 % of control | dose: 18.75 mg/kg/injection, schedule: Q04DX003 (ip), vehicle: distilled water + Tween-80 99 % of control | dose: 37.5 mg/kg/injection, schedule: Q04DX003 (ip), vehicle: distilled water + Tween-80 97 % of control | dose: 75.0 mg/kg/injection, schedule: Q04DX003 (ip), vehicle: distilled water + Tween-80 99 % of control | dose: 150.0 mg/kg/injection, schedule: Q04DX003 (ip), vehicle: distilled water + Tween-80 99 % of control | dose: 300.0 mg/kg/injection, schedule: Q04DX003 (ip), vehicle: distilled water + Tween-80 105 % of control

COc1cc(C(c2cc3c(cc2OC(C)=O)OCO3)C(C)C(C)=O)cc(OC)c1OC (configuration not stated)
inactive: [4] 102 % of control | [5] 108 % of control | [6] 111 % of control

COc1cc(C2N3CCCN2CC3)cc(OC)c1OC (configuration not stated)
inactive: [7] 101 % of control | [8] 102 % of control

O=[N+]([O-])c1cc(NC(=S)SCc2ccc(Cl)cc2)ccc1Cl
inactive: dose: 25.0 mg/kg/injection, schedule: Q01DX009 (ip), vehicle: saline with Tween-80 106 % of control | [9] 105 % of control | [1] 100 % of control | [10] 100 % of control | dose: 50.0 mg/kg/injection, schedule: Q01DX009 (ip), vehicle: suspension in saline 109 % of control | [2] 106 % of control | [7] 107 % of control | dose: 100.0 mg/kg/injection, schedule: Q01DX009 (ip), vehicle: suspension in saline 108 % of control | [3] 106 % of control | [8] 110 % of control | dose: 200.0 mg/kg/injection, schedule: Q01DX009 (ip), vehicle: suspension in saline 121 % of control

N#C/C(=C\c1cccs1)c1ccccc1
inactive: [1] 102 % of control | [2] 103 % of control | [3] 100 % of control | dose: 400.0 mg/kg/injection, schedule: Q01DX009 (ip), vehicle: saline with Tween-80 105 % of control

NC1CC1N (configuration not stated)
inactive: dose: 6.25 mg/kg/injection, schedule: Q01DX009 (ip), vehicle: saline 101 % of control | dose: 12.5 mg/kg/injection, schedule: Q01DX001 (ip), vehicle: saline 107 % of control | dose: 12.5 mg/kg/injection, schedule: Q01DX009 (ip), vehicle: saline 101 % of control | dose: 25.0 mg/kg/injection, schedule: Q01DX001 (ip), vehicle: saline 107 % of control | [9] 100 % of control | dose: 50.0 mg/kg/injection, schedule: Q01DX001 (ip), vehicle: saline 101 % of control

CCCCCCCCC(=O)C(=O)c1ccc(O)cc1O
inactive: dose: 50.0 mg/kg/injection, schedule: Q01DX009 (ip), vehicle: Klucel (hydroxypropylcellulose) (HPC) 113 % of control | dose: 100.0 mg/kg/injection, schedule: Q01DX009 (ip), vehicle: Klucel (hydroxypropylcellulose) (HPC) 113 % of control | dose: 200.0 mg/kg/injection, schedule: Q01DX009 (ip), vehicle: Klucel (hydroxypropylcellulose) (HPC) 113 % of control

CC1=CC(=O)C(Cc2ccccc2)(c2ccc(O)cc2O)N1 (configuration not stated)
inactive: dose: 100.0 mg/kg/injection, schedule: Q01DX001 (ip), vehicle: Klucel (hydroxypropylcellulose) (HPC) 101 % of control | dose: 200.0 mg/kg/injection, schedule: Q01DX001 (ip), vehicle: Klucel (hydroxypropylcellulose) (HPC) 97 % of control | dose: 400.0 mg/kg/injection, schedule: Q01DX001 (ip), vehicle: Klucel (hydroxypropylcellulose) (HPC) 89 % of control

CC(=O)OC1C2C(OC3OC(=O)/C(=C\C=C4\CCCC(C)(C)C4)C32)O[C@H]1OC(C)=O (some centres not stated)
inactive: dose: 6.25 mg/kg/injection, schedule: Q01DX005 (ip), vehicle: Klucel (hydroxypropylcellulose) (HPC) 105 % of control | dose: 12.5 mg/kg/injection, schedule: Q01DX005 (ip), vehicle: Klucel (hydroxypropylcellulose) (HPC) 113 % of control | dose: 25.0 mg/kg/injection, schedule: Q01DX005 (ip), vehicle: Klucel (hydroxypropylcellulose) (HPC) 86 % of control

CSCCC(N)C(=O)NCCS(=O)(=O)O (configuration not stated)
inactive: dose: 60.0 mg/kg/injection, schedule: Q01DX005 (ip), vehicle: saline 105 % of control | dose: 120.0 mg/kg/injection, schedule: Q01DX005 (ip), vehicle: saline 109 % of control | dose: 240.0 mg/kg/injection, schedule: Q01DX005 (ip), vehicle: saline 102 % of control

O=C(NN=C1CCCCC1)C(=O)Nc1cccc(C(F)(F)F)c1
inactive: dose: 50.0 mg/kg/injection, schedule: Q01DX005 (ip), vehicle: Klucel (hydroxypropylcellulose) (HPC) 97 % of control | dose: 100.0 mg/kg/injection, schedule: Q01DX005 (ip), vehicle: Klucel (hydroxypropylcellulose) (HPC) 92 % of control | dose: 200.0 mg/kg/injection, schedule: Q01DX005 (ip), vehicle: Klucel (hydroxypropylcellulose) (HPC) 88 % of control

CC1OC(OC2C(Oc3ccc4c(=O)c(-c5ccc(O)c(O)c5O)coc4c3)OC(CO)C(O)C2O)C(O)C(O)C1O (configuration not stated)
inactive: [4] 103 % of control | [5] 101 % of control | [6] 103 % of control

O=C(Cc1nc2ccc(Cl)cc2[nH]c1=O)c1ccccc1
inactive: [4] 112 % of control | [5] 108 % of control | [6] 107 % of control

C1COCCN2CCOCCOCCN(CCO1)CCOCC2
inactive: [10] 109 % of control | [7] 106 % of control | [8] 107 % of control

OCCCCC1COC(CC2OCC(CCCCO)O2)O1 (configuration not stated)
inactive: dose: 50.0 mg/kg/injection, schedule: Q01DX005 (ip), vehicle: saline 101 % of control | dose: 100.0 mg/kg/injection, schedule: Q01DX005 (ip), vehicle: saline 100 % of control | dose: 200.0 mg/kg/injection, schedule: Q01DX005 (ip), vehicle: saline 101 % of control

Cc1csc2n/c(=N/[N+](=O)[O-])sn12
inactive: [4] 92 % of control | [5] 103 % of control | [6] 120 % of control

Cc1ccc(S(=O)(=O)SSN2CCCCC2)cc1
inactive: [4] 99 % of control | [5] 101 % of control | [6] 99 % of control
